# Measured values taken from patent publication USRE38257E1, “Piperdine derivatives and hypotensives containing the same” (Ajinomoto Co., Inc., priority 1988, dated 2003).
# Test system: male spontaneously hypertensive rats
# Test: Decrease in systolic blood pressure in spontaneously hypertensive rats after intravenous bolus injection, indirect (tail-cuff) method
# Format: in vivo, rat
# Details: for Decrease in systolic blood pressure (mmHg) time after administration (hour) 0.5: 0.5 hour after administration; for Decrease in systolic blood pressure (mmHg) time after administration (hour) 4: 4 hours after administration
# Description: As test animals, four male spontaneously hypertensive rats (weight 400 to 440 g) that were sufficiently adapted for feeding and in which hypertension was confirmed were used.
# Physiological saline aqueous solution containing 2.5% Nicolle and 2.5% ethanol of sample was intravenously administered by bolus injection at a dose of 1 ml per 1 kg of body weight. Systolic blood pressure after administration was measured by the indirect (tail-cuff) method.
SMILES,Decrease in systolic blood pressure (mmHg) time after administration (hour) 0.5 (dose 10 mg/kg i.v. bolus) [mmHg],Decrease in systolic blood pressure (mmHg) time after administration (hour) 4 (dose 10 mg/kg i.v. bolus) [mmHg],Decrease in systolic blood pressure (mmHg) time after administration (hour) 0.5 (dose 3 mg/kg i.v. bolus) [mmHg],Decrease in systolic blood pressure (mmHg) time after administration (hour) 4 (dose 3 mg/kg i.v. bolus) [mmHg],also measured
"Cl.Cl.Nc1ccc(C=CCN2CCC(=C3c4ccccc4C=Cc4ccccc43)CC2)cc1 [Example 326, 1-(4-Aminocinnamyl)-4-(5H-Dibenzo[a,d]cyclohepten-5-ylidene)-1-piperidine dihydrochloride]",–,–,–,–,Decrease in systolic blood pressure (mmHg) time after administration (hour) 0.5 (dose 1 mg/kg i.v. bolus): −125 mmHg; Decrease in systolic blood pressure (mmHg) time after administration (hour) 4 (dose 1 mg/kg i.v. bolus): −102 mmHg
"COc1ccc(CCCN2CCC(=C3c4ccccc4C=Cc4ccccc43)CC2)c(OC)c1.Cl.Cl [Example 328, 3-(4-(5H-Dibenzo[a,d]cyclohepten-5-ylidene)-1-piperidinyl)-1-(2,4-dimethoxyphenyl)propane dihydrochloride]",−125,−87,–,–,–
"Cl.O=[N+]([O-])c1cccc2c1CC(CN1CCC(=C3c4ccccc4C=Cc4ccccc43)CC1)C2 (stereo not shown) [Example 329, 2-(4-(5H-Dibenzo[a,d]cyclohepten-5-ylidene)-1-piperidinyl)methyl-4′-nitroindan hydrochloride]",−34,−7,–,–,–
"Cl.Nc1cccc2c1CC(CN1CCC(=C3c4ccccc4C=Cc4ccccc43)CC1)C2 (stereo not shown) [Example 330, 4′-Amino-2-(4-(5H-Dibenzo[a,d]cyclohepten-5-ylidene)-1-piperidinyl)methylindan hydrochloride]",−93,−25,–,–,–
"CC(=O)Nc1cccc2c1CC(CN1CCC(=C3c4ccccc4C=Cc4ccccc43)CC1)C2.Cl (stereo not shown) [Example 331, 4′Acetylamino-2(4-(5H-Dibenzo[a,d]cyclohepten-5-ylidene)-1-Piperidinyl)methylindan hydrochloride]",−62,−14,–,–,–
"Cl.O=[N+]([O-])c1ccc2c(c1)CC(CN1CCC(=C3c4ccccc4C=Cc4ccccc43)CC1)C2 (stereo not shown) [Example 332, 2-(4-(5H-Dibenzo[a,d]cyclohepten-5-ylidene)-1-piperidinyl)methyl-5′-nitroindan hydrochloride]",−111,−57,–,–,–
"CC(=O)Nc1ccc2c(c1)CC(CN1CCC(=C3c4ccccc4C=Cc4ccccc43)CC1)C2.Cl (stereo not shown) [Example 334, 5′-acetylamino-2-(4-(5H-Dibenzo[a,d]cyclohepten-5-ylidene)-1-piperidinyl)methylindan hydrochloride]",–,–,−130,−93,–
"COc1ccc(OC)c(C=CCN2CCC(=C3c4ccccc4C=Cc4ccccc43)CC2)c1.Cl [Example 343, 4-(5H-Dibenzo[a,d]cyclohepten-5-ylidene)-1-(2,5-dimethoxycinnamyl)piperidine hydrochloride]",–,–,−83,−45,–
"COc1cccc(C=CCN2CCC(=C3c4ccccc4C=Cc4ccccc43)CC2)c1OC.Cl [Example 344, 4-(5H-Dibenzo[a,d]cyclohepten-5-ylidene)-1-(2,3-dimethoxycinnamyl)piperidine hydrochloride]",–,–,–,–,Decrease in systolic blood pressure (mmHg) time after administration (hour) 0.5 (dose 1 mg/kg i.v. bolus): −123 mmHg; Decrease in systolic blood pressure (mmHg) time after administration (hour) 4 (dose 1 mg/kg i.v. bolus): −35 mmHg
"COc1cc(C=CCN2CCC(=C3c4ccccc4C=Cc4ccccc43)CC2)cc(OC)c1.Cl [Example 345, 4-(5H-Dibenzo[a,d]cyclohepten-5-ylidene)-1-(3,5-dimethoxycinnamyl)piperidine hydrochloride]",–,–,−120,−95,–
"Cl.N#Cc1ccc(C=CCN2CCC(=C3c4ccccc4C=Cc4ccccc43)CC2)cc1 [Example 346, 1-(4-Cyanocinnamyl)-4-(5H-Dibenzo[a,d]cyclohepten-5-ylidene)-1-piperidine hydrochloride]",–,–,−142,−121,–
"COc1ccccc1C=CCN1CCC(=C2c3ccccc3C=Cc3ccccc32)CC1.Cl [Example 347, 4-(5H-Dibenzo[a,d]cyclohepten-5-ylidene)-1-(2-methoxycinnamyl)piperidine hydrochloride]",–,–,−116,−53,–
"COc1cccc(C=CCN2CCC(=C3c4ccccc4C=Cc4ccccc43)CC2)c1.Cl [Example 348, 4-(5H-Dibenzo[a,d]cyclohepten-5-ylidene)-1-(3-methoxycinnamyl)piperidine hydrochloride]",–,–,−105,−12,–
"C1=Cc2ccccc2C(=C2CCNCC2)c2ccccc21.Cl [Example 349, 4-(5H-Dibenzo[a,d]cyclohepten-5-ylidene)-1-piperidine hydrochloride]",–,–,–,–,Decrease in systolic blood pressure (mmHg) time after administration (hour) 0.5 (dose 1 mg/kg i.v. bolus): −48 mmHg; Decrease in systolic blood pressure (mmHg) time after administration (hour) 4 (dose 1 mg/kg i.v. bolus): −43 mmHg
"Cl.O=[N+]([O-])c1ccc(C=CCN2CCC(=C3c4ccccc4CCc4ccccc43)CC2)cc1 [Example 350, 4-(10,11-Dihydro-5H-dibenzo[a,d]cyclohepten-5-ylidene)-1-(4-nitrocinnamyl)piperidine hydrochloride]",−136,−85,–,–,–
"Cl.Cl.Nc1ccc(C=CCN2CCC(=C3c4ccccc4CCc4ccccc43)CC2)cc1 [Example 351, 1-(4-Aminocinnamyl)-4-(10,11-dihydro-5H-Dibenzo[a,d]cyclohepten-5-ylidene)-1-piperidine dihydrochloride]",–,–,−70,−21,–
"CC(=O)Nc1ccc(C=CCN2CCC(=C3c4ccccc4CCc4ccccc43)CC2)cc1.Cl.Cl [Example 352, 1-(4-Acetylaminocinnamyl)-4-(10,11 dihydro-5H-Dibenzo[a,d]cyclohepten-5-ylidene)piperidine dihydrochloride]",–,–,−93,−60,–
Cl.Fc1ccc(C=CCN2CCC(=C3c4ccccc4C=Cc4ccccc43)CC2)cc1 [Example 353],−147,−138,–,–,–
"Cl.O=[N+]([O-])c1cccc2c1CC(CCN1CCC(=C3c4ccccc4C=Cc4ccccc43)CC1)C2 (stereo not shown) [Example 354, 2-(2-(4-(5H-Dibenzo[a,d]cyclohepten-5-ylidene)-1-piperidinyl)-1-ethyl)-4′-nitroindan hydrochloride]",–,–,−89,−8,–
"Cl.Oc1ccc(C=CCN2CCC(=C3c4ccccc4C=Cc4ccccc43)CC2)cc1 [Example 363, 4-(5H-Dibenzo[a,d]cyclohepten-5-ylidene)-1-(4-hydroxycinnamyl)piperidine hydrochloride]",–,–,−120,–,–
"CC(=O)Oc1ccc(C=CCN2CCC(=C3c4ccccc4C=Cc4ccccc43)CC2)cc1.Cl [Example 364, 1-(4-Acetoxycinnamyl)-4-(5H-Dibenzo[a,d]cyclohepten-5-ylidene)piperidine hydrochloride]",–,–,–,–,Decrease in systolic blood pressure (mmHg) time after administration (hour) 0.5 (dose 1 mg/kg i.v. bolus): −113 mmHg
"COc1cc(C=CCN2CCC(=C3c4ccccc4C=Cc4ccccc43)CC2)ccc1O.Cl [Example 365, 4-(5H-Dibenzo[a,d]cyclohepten-5-ylidene)-1-(4-hydroxy-3-methoxycinnamyl)piperidine hydrochloridine]",–,–,−80,−56,–
"COc1cc(C=CCN2CCC(=C3c4ccccc4C=Cc4ccccc43)CC2)ccc1OC(C)=O.Cl [Example 366, 1-(4-Acetoxy-3-methoxycinnamyl)-4-(5H-Dibenzo[a,d]cyclohepten-5-ylidene)-1-piperidine hydrochloride]",–,–,−152,−113,–
"Cl.Oc1cccc(C=CCN2CCC(=C3c4ccccc4C=Cc4ccccc43)CC2)c1 [Example 367, 4-(5H-Dibenzo[a,d]cyclohepten-5-ylidene)-1-(3-hydroxycinnamyl)piperidine hydrochloride]",−98,−63,–,–,–
"CC(=O)Oc1cccc(C=CCN2CCC(=C3c4ccccc4C=Cc4ccccc43)CC2)c1.Cl [Example 368, 1-(3-Acetoxycinnamyl)-4-(5H-Dibenzo[a,d]cyclohepten-5-ylidene)piperidine hydrochloride]",–,–,−110,−68,–
"COCC(=O)Oc1cccc(C=CCN2CCC(=C3c4ccccc4C=Cc4ccccc43)CC2)c1.Cl [Example 369, 4-(5H-Dibenzo[a,d]cyclohepten-5-ylidene)-1-(3-(2-methoxyacetoxy)cinnamyl)piperidine hydrochloride]",−101,−83,–,–,–
"CCC(=O)Nc1ccc(C=CCN2CCC(=C3c4ccccc4C=Cc4ccccc43)CC2)cc1.Cl [Example 370, 4-(5H-Dibenzo[a,d]cyclohepten-5-ylidene)-1-(4-propanoylaminocinnamyl)piperidine hydrochloride]",−99,−69,–,–,–
